US7449465B2, “Triazolopyrimidine derivatives as glycogen synthase kinase 3 inhibitors” (Janssen Pharmaceutica, N.V., priority 2003, dated 2008)

How the values were obtained:
GSK3alpha = GSK3alpha (Homo sapiens, UniProt P49840); assay: GSK3alpha assay (same as the GSK3beta assay, 0.25 ng/μl GSK3alpha); format: biochemical; conditions: ranges of pIC50 (−log IC50 (M)), 1 μM ATP, read-out: GSK3a pIC50 (converted)
Protocol: (§1) GSK3beta assays were performed at room temperature in a 100 μl reaction volume of 25 mM Tris (pH 7.4) containing 10 mM MgCl2.6H2O, 1 mM DTI, 0.1 mgiml BSA, 5% glycerol and containing 5.7 ng/μl GSK3β, 5 μM biotinylated phosphorylated CREB peptide, 1 μM ATP, 0.85 μCi/ml ATP-P^33 and a suitable amount of a test compound of formula (I). After one hour, the reaction was terminated by adding 70 μl of Stop mix (0.1 mM ATP, 5 mg/ml streptavidin coated PVT SPA bead pH 11.0). The beads to which the phosphorylated CREB peptide is attached were allowed to settle overnight and the radioactivity of the beads was counted in a microtiterplate scintillation counter and compared with the results obtained in a control experiment (without the presence of a test compound) in order to determine the percentage of GSK3β inhibition. The IC50 value, i.e. the concentration (M) of the test compound at which 50% of GSK3β is inhibited, was calculated from the dose response curve obtained by performing the above-described GSK3β assay in the presence of different amounts of the test compound.
The GSK3alpha assay was performed in the same way as described above for the GSK3beta assay except for the concentration of GSK3alpha which is 0.25 ng/μl.

GSK3β = GSK3β (Homo sapiens, UniProt P49841); assay: GSK3beta assay (SPA, biotinylated phosphorylated CREB peptide, ATP-P33); format: biochemical; conditions: ranges of pIC50 (−log IC50 (M)); 1 μM ATP, room temperature, one hour; read-out: GSK3b pIC50 (converted)
Protocol: as §1

Chain of GSK3alpha (P49840 whole entry, species assumed): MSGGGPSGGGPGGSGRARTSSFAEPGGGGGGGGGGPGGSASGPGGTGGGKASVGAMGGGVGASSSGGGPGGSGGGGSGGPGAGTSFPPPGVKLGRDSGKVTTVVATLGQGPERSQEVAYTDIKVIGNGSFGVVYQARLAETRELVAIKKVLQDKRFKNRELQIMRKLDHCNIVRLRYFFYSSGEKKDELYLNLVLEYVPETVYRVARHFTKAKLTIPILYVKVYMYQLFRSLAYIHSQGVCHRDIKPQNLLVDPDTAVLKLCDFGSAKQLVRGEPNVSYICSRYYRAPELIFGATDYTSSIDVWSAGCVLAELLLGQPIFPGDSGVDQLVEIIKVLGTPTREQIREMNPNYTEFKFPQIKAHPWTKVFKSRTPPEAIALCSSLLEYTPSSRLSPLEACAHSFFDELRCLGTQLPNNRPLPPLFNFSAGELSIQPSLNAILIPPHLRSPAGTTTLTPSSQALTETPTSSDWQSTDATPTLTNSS
Chain of GSK3β (P49841 whole entry, species assumed): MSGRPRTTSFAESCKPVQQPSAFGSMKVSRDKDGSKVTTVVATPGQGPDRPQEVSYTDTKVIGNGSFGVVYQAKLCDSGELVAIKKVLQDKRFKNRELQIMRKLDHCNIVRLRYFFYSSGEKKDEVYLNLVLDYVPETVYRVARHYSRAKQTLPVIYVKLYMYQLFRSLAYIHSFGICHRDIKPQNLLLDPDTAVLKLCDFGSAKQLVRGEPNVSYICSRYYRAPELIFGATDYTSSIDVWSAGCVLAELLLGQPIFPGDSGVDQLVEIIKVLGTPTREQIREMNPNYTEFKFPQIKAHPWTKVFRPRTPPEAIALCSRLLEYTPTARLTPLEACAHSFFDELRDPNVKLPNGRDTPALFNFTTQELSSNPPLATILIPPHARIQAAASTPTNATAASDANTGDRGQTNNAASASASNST

| IC50 (GSK3alpha) [M] | IC50 (GSK3β) [M] | Structure (SMILES) |
| --- | --- | --- |
| < 1e-08 | < 1e-08 | CN1CCN(Cc2ccc(Nc3ncc4nnn(-c5cccc(CCO)c5)c4n3)cc2)CC1 [Compound 78] |
| 1e-08 to 1e-07 | 1e-08 | OCCc1cccc(-n2nnc3cnc(Nc4cccc(-c5nnn[nH]5)c4)nc32)c1 [Compound 75] |
| < 1e-08 | < 1e-08 | Cn1nnnc1-c1cccc(Nc2ncc3nnn(-c4ccccc4)c3n2)c1 [Compound 74] |
| < 1e-08 | 1e-08 to 1e-07 | COCc1cccc(-n2nnc3cnc(Nc4ccc(CN5CCN(C)CC5)cc4)nc32)c1 [Compound 101] |
| < 1e-08 | 1e-08 to 1e-07 | Fc1cccc(-n2nnc3cnc(Nc4ccc(OCCN5CCOCC5)cc4)nc32)c1 [Compound 141] |
|  | < 1e-08 | Cn1ccnc1-c1cccc(Nc2ncc3nnn(-c4ccc5c(c4)OCCO5)c3n2)c1 [Compound 66] |
| > 1e-07 | 1e-08 to 1e-07 | Fc1cccc(-n2nnc3cnc(Nc4ccc(-n5cccn5)cc4)nc32)c1 [Compound 39] |
| < 1e-08 | < 1e-08 | Cc1nc(-c2cccc(Nc3ncc4nnn(-c5cccc(F)c5)c4n3)c2)cs1 [Compound 21] |
| < 1e-08 | < 1e-08 | Cn1nnnc1-c1cccc(Nc2ncc3nnn(-c4cccc(F)c4)c3n2)c1 [Compound 28] |
| < 1e-08 | < 1e-08 | COCc1cccc(-n2nnc3cnc(Nc4cccc(-c5ccnc(N)n5)c4)nc32)c1 [Compound 100] |
| 1e-08 to 1e-07 |  | O=C(O)c1cc(Nc2ncc3nnn(-c4cccc(F)c4)c3n2)ccc1N1CCOCC1 [Compound 150] |
|  | < 1e-08 | Cc1cccc(-n2nnc3cnc(Nc4cccc(-c5nccn5C)c4)nc32)c1 [Compound 14] |
|  | 1e-08 to 1e-07 | Brc1cccc(-n2nnc3cnc(Nc4ccc(-n5cncn5)cc4)nc32)c1 [Compound 51] |
|  | < 1e-08 | COc1ccc(-n2nnc3cnc(Nc4cccc(-c5nccn5C)c4)nc32)cc1 [Compound 3] |
| 1e-08 to 1e-07 |  | Nc1nccc(-c2cccc(Nc3ncc4nnn(-c5cccc(CNC(=O)C6CC6)c5)c4n3)c2)n1 [Compound 119] |
|  | 1e-08 to 1e-07 | Cn1ccnc1-c1cccc(Nc2ncc3nnn(-c4ccc5cn[nH]c5c4)c3n2)c1 [Compound 148] |

| IC50 (GSK3alpha) [M] | IC50 (GSK3β) [M] | Structure (SMILES) |
| --- | --- | --- |
|  | 1e-08 to 1e-07 | Cn1ccnc1-c1cccc(Nc2ncc3nnn(-c4ccc(Br)cc4)c3n2)c1 [Compound 49] |
|  | < 1e-08 | COc1cccc(-n2nnc3cnc(Nc4cccc(-c5nccn5C)c4)nc32)c1 [Compound 17] |
|  | < 1e-08 | Fc1cccc(-n2nnc3cnc(Nc4cccc(-c5cncnc5)c4)nc32)c1 [Compound 31] |
|  | < 1e-08 | Cn1ccnc1-c1cccc(Nc2ncc3nnn(-c4ccc5c(c4)CCC5)c3n2)c1 [Compound 65] |
|  | 1e-08 to 1e-07 | Cn1cc(Br)c(-c2cccc(Nc3ncc4nnn(-c5cccc(Br)c5)c4n3)c2)n1 [Compound 45] |
|  | > 1e-07 | CC(=O)N(C)c1ccc(-n2nnc3cnc(Nc4cccc(-c5nccn5C)c4)nc32)cc1 [Compound 57] |
|  | < 1e-08 | COc1cc(-n2nnc3cnc(Nc4cccc(-c5nccn5C)c4)nc32)cc(C(F)(F)F)c1 [Compound 63] |
|  | < 1e-08 | COCCOCc1cccc(-n2nnc3cnc(Nc4ccc(N5CCOCC5)cc4)nc32)c1 [Compound 107] |
|  | 1e-08 to 1e-07 | COc1ccc(-n2nnc3cnc(Nc4cccc(-c5nccn5C)c4)nc32)cc1F [Compound 61] |
|  | 1e-08 to 1e-07 | CSc1ccc(-n2nnc3cnc(Nc4cccc(-c5nccn5C)c4)nc32)cc1 [Compound 55] |
|  | 1e-08 to 1e-07 | Cc1nccc(-c2cccc(Nc3ncc4nnn(-c5cccc(Br)c5)c4n3)c2)n1 [Compound 48] |
|  | 1e-08 to 1e-07 | COCCOc1cccc(-n2nnc3cnc(Nc4ccc(OCCN5CCN(C)CC5)cc4)nc32)c1 [Compound 153] |
|  | 1e-08 to 1e-07 | Cn1ccnc1-c1cccc(Nc2ncc3nnn(-c4ccc(CCO)cc4)c3n2)c1 [Compound 56] |
|  | > 1e-07 | Fc1cccc(-n2nnc3cnc(Nc4ccc(-n5cccc5)cc4)nc32)c1 [Compound 37] |
|  | 1e-08 to 1e-07 | Cc1ccc(-n2nnc3cnc(Nc4cccc(-c5nccn5C)c4)nc32)cc1Cl [Compound 60] |
